Reference: patent US20230172894A1, “COMBINATION TREATMENT FOR FUMARATE-RELATED DISEASES” (IMCYSE SA, priority 2020, published 2023)
Structures can show the parent of a compound that is named as a salt.

Columns and labels:
[1] = test system: experimental auto-immune encephalomyelitis (EAE) development in mice; details: Example 1; for AUC (area under the curve) of EAE scores: day 7 to 28 scoring; for AUC (area under the curve) of EAE scores / end score (clinical EAE score 0-5) / MMS (mean maximal score): vs negative control; for AUC (area under the curve) of EAE scores / disease onset / end score (clinical EAE score 0-5) / MMS (mean maximal score): combination also vs each single treatment; for disease onset / end score (clinical EAE score 0-5): peptide 100 μg/Alum s.c. days −21, −14, −7, BG-12 100 mg/kg p.o. BID days 0 to 27; for disease onset: vs negative control (Saline/Vehicle)
Source text: Example 1: Effect of the prophylactic administration of an immunogenic peptide comprising a MOG35-55 MHCII T cell epitope and a HCPYC oxidoreductase motif in combination with dimethyl fumarate (BG-12, […]™) on experimental auto-immune encephalomyelitis (EAE) development in mice.
The study used a total of 64 female C57BL/6 mice (Taconic Biosciences, 10 weeks old on Day 0). Mice were acclimated for 8 days prior to the first injection. Mice were assigned to groups in a balanced manner to achieve similar average weight across the groups at the start of the study.
Treatment 1 was administered once on each of the days indicated in Table 1, s.c., at a volume of 0.05 mL/site, each mouse receiving injection at two sites, for a total of 0.1 mL/mouse/dosing day, corresponding to 100 μg of peptide.
BG-12 was dosed at 100 mg/kg. All dosing was done at the same time (+/−1 hour) each dosing day. For the BID groups there were no less than 10 and no more than 14 hours between doses.
For Treatment 1, 0.9% NaCl solution was prepared at each dosing day. […] (SEQ ID NO: 185), comprising an oxidoreductase motif HCPYC (SEQ ID NO: 71), a linker GW, a murine Myelin Oligodendrocyte Glycoprotein (MOG35-55) MHCII T cell epitope […] (SEQ ID NO: 169) and a flanking sequence HLYR (SEQ ID NO: 186) (Smart Bioscience) was solubilized immediately before use. Lyophilized IMCY-0189 was thawed at room temperature for 10 minutes, resuspended in Na Acetate buffer 50 mM pH 5.4 and incubated at room temperature for 5 minutes. Reconstituted peptide was then mixed with Imject™ Alum Adjuvant before injection.
For Treatment 2, vehicle was 0.5% HPMC, 0.2% Tween 20, and 50 mM citrate buffer at pH 4. BG-12 (or […]™, from Santa Cruz Biotechnology, catalog number sc-239774) was prepared once a week. At each preparation the required amount of BG-12 was weighed out into a mortar and triturated with a pestle. Vehicle was then added in small increments and mixed until the final volume was reached. The material was then vortexed and sonicated in a water bath until a homogeneous suspension was obtained. Formulated BG-12 was stored at 4° C., stirring continuously.
EAE was induced in all mice as follows: • Day 0, Hour 0—Immunization with a peptide corresponding to the amino acids 35-55 of MOG (MOG35-55)/CFA • Day 0, Hour 2—Injection of pertussis toxin • Day 1, Hour 0-2nd injection of pertussis toxin (24 hours after initial immunization).
Mice were injected subcutaneously at two sites in the back with the emulsion component (containing MOG35-55) of Hooke Kit™ MOG35-55/CFA Emulsion PTX, catalog number EK-2110 (lot #127, Hooke Laboratories, Lawrence Mass.). One site of injection was in the area of upper back, approximately 1 cm caudal of the neck line. The second site was in the area of lower back, approximately 2 cm cranial of the base of the tail. The injection volume was 0.1 mL at each site. Each mouse received 200 μg of MOG35-55.
Within 2 hours of the injection of emulsion, and then again 24 hours after the injection of emulsion, the pertussis toxin component of the kit was administered intraperitoneally. The pertussis toxin (lot #1008, Hooke Laboratories) was administered at 100 ng/dose for both injections and the volume of each injection was 0.1 mL.
Animals were scored daily starting from Day 7 to the end of the study. Scoring was performed blind, by a person unaware of both treatment and of previous scores for each mouse. In-between scores were assigned when the clinical signs fell between two above defined scores.
AUC, MMS, inflammation and demyelination, and NF-L levels quantification data were analyzed by performing Ordinary one-way ANOVA. Adjustment for multiplicity was performed using Holm-Sidak's method. Significant differences are referred as follows: *p<0.05, **p<0.01, ***p<0.001, ****p<0.0001.
EAE development was evaluated by comparing clinical EAE readouts for all groups to the negative control (Saline/Vehicle) group.

[2] = test system: experimental auto-immune encephalomyelitis (EAE) development in mice; assay: Example 4: serum neurofilament light (NF-L) levels in EAE mice; type: in vivo, female C57BL/6 mice; details: Day 28 serum, vs negative control
Protocol: On Day 28, blood was collected from all mice into gel clot activator tubes and allowed to clot at room temperature for ˜30 minutes. Blood is then centrifuged at ˜10000 g for 5 minutes. Serum was transferred into Eppendorf tubes and stored at −80° C. until shipment to Quanterix™. Serum Neurofilament light (NF-L) protein levels were quantified using Simoa® NF-light Advantage kit as described in example 1.
Serum neurofilaments levels were quantified as described in example 3.

[3] = test system: experimental auto-immune encephalomyelitis (EAE) development in mice; assay: Example 1: spinal cord histology (H&E inflammatory foci, anti-MBP demyelination score) in EAE mice; type: in vivo, female C57BL/6 mice; details: vs negative control, combination also vs each single treatment
Protocol: At the end of the study, all mice were euthanized, and spines were collected and placed in 10% buffered formalin for histological analysis.
For each spine, one H&E stained slide and one anti-MBP stained slide were prepared and analyzed. Each slide contained a section with samples from lumbar, thoracic and cervical of spinal cord (3 samples). All analysis was performed by a pathologist blinded to the experimental groups and all clinical readouts.
Inflammatory foci of approximately 20 cells were counted in each H&E stained section. When inflammatory infiltrates consisted of more than 20 cells, an estimate was made of how many foci of 20 cells were present.
Demyelination was scored in each anti-MBP (using immunohistochemistry) stained section. In anti-MBP sections, demyelination is observed as conspicuous unstained areas in white matter tracts and is associated with presence of large vacuoles. The demyelination score represents an estimate of demyelinated area for each section as follows: […]

| Molecule | mice died in group ([1]; 16 mice per group) | AUC (area under the curve) of EAE scores [1] | disease onset [1] | end score (clinical EAE score 0-5) [1] | MMS (mean maximal score) [1] | serum NF-L levels [2] | level of inflammation (inflammatory foci in H&E stained spinal cord sections) [3] | mice died due to severe EAE ([1]; 16 mice per group) [mouse] | level of demyelination (anti-MBP stained sections, score 0-5) [3] |
| --- | --- | --- | --- | --- | --- | --- | --- | --- | --- |
| COC(=O)/C=C/C(=O)OC [BG-12, dimethyl fumarate, reference compound] | No mice died | statistically significant reduced | postponed disease onset | reduced end score | statistically significant reduced | statistically significant reduced NF-L levels | reduced level of inflammation, although not statistically significant | – | – |
| HCPYCGWYRSPFSRVVHLYR [IMCY-0189] | 2 mice | statistically significant reduced | postponed disease onset | reduced end score | statistically significant reduced | statistically significant reduced NF-L levels | reduced level of both inflammation and demyelination, although not statistically significant | 1 | reduced level of both inflammation and demyelination, although not statistically significant |
